From publication PMC8658963, “Synthesis and Evaluation of Trypanocidal Activity of Chromane-Type Compounds and Acetophenones” (Molecules, 2021)
Read-outs that look alike come from different tables or passages of the source.

Assays:
in vitro = conditions: human, Cytotoxicity (LC50)
Procedure: (§1) Cytotoxicity was evaluated in the human monocyte cell line U-937 (ATCC CRL-1593.2) at the exponential growth phase, adjusted at 1 × 10^5 cells/mL in complete RPMI-1640 medium (RPMI-1640 enriched with 200 mM L-glutamine, 10% inactivated fetal bovine serum (FBS) and 1% of a mixture of 10,000 IU/mL penicillin plus […] streptomycin). Then, in each well of a 96-well tissue culture plate were dispensed […] of cells plus […] of each compound (as one of six serials 1:2 dilution concentrations starting at 368 µM prepared in the same medium). Doxorubicin was included as an internal positive control under the same dilution pattern, starting at 18 µM whereas unexposed cells were used as negative controls. Afterward, cells were incubated for 72 h at 37 °C and 5% CO2. Cell viability was assayed by the MTT reduction assay according to the optical density (O.D) at 570 nm of the resulting reduction of formazan in a Varioskan Flash Multimode Reader (Thermo Scientific, Waltham, MA, USA). Nonspecific absorbance was corrected by subtracting the O.D of the blank solution that corresponded to complete RPMI-1640 medium. The assay was done in triplicate in at least two independent experiments.
(§2) The cytotoxicity was expressed as the medial lethal concentration (LC50), while the trypanocidal activity was defined as the median effective concentration (EC50) according to the percentage of inhibition of cells and parasites, respectively, as described elsewhere. Both LC50 and EC50 were calculated by the Probit analysis. […] Similarly, the trypanocidal activity was graded according to EC50 values, based on the hit criteria proposed by others into high when EC50 was lower than 10 μM, moderate when EC50 values were higher than 10 μM but lower than 50 μM and, low when EC50 was higher than 50 μM. The relation between cytotoxicity and trypanocidal activity was expressed as the index of selectivity (IS) that corresponded to the ratio when dividing the LC50 by the EC50.

[1] = system: intracellular amastigotes of T. cruzi (Tulahuen strain transfected with the β-galactosidase gene); assay: Anti-trypanosomal activity, β-galactosidase readout in infected U937 macrophages, 72 h; assay type: cell-based, Trypanosoma cruzi; conditions: for SI (index of selectivity, IS = LC50/EC50): LC50 in U937 cells divided by EC50 against T. cruzi; for Trypanocidal activity compared with the control drug BNZ / Trypanocidal activity (grade): T. cruzi intracellular amastigotes; for Trypanocidal activity compared with the control drug BNZ: result in words
Procedure: This activity was carried out in intracellular amastigotes of T. cruzi (Tulahuen strain transfected with the β-galactosidase gene. Briefly, metacyclic trypomastigotes were cultured at 26 °C for ten days in a modified NNN (Novy−McNeal−Nicolle) medium. U937 cells were seeded in 96-well tissue culture plates at a density of 2.5 × 10^4 cells in 100 μL of complete RPMI-1640 medium/well and exposed for 24 h to phorbol myristate acetate (1 ng/mL) to induce transformation of monocytes into macrophages. Cells were infected with trypomastigotes (5 parasites per cell) and incubated for 24 h at 37 °C, 5% CO2. Wells were washed twice with warm phosphate buffer solution (PBS) to remove noninternalized parasites, and then were added 100 μL of complete RPMI-1640 medium and 100 μL of each concentration of compound (50, 12.5, 3.125 μM). BNZ, at the same concentrations, was used as internal control for trypanocidal activity (positive control), and nontreated cells as controls for infection (negative control). After 72 h of incubation 37 °C, 5% CO2, the viability of intracellular amastigotes was determined by measuring the β-galactosidase activity. For this, 100 μM of Chlorophenol red-β-D- galactopyranoside (CPRG), and 0.1% Nonidet P-40 was added to each well and incubated for 4 h at 37 °C, […] protected from light. After that, measurement β-galactosidase activity was measured at 570 nm on a Varioskan, Thermo spectrophotometer. Nonspecific absorbance was subtracted from the measurement. Infected cells exposed to benznidazole were used as controls for anti-trypanosomal activity. Determinations were done in triplicate with at least two independent experiments.

[2] = system: human monocyte cell line U-937 (ATCC CRL-1593.2); assay: Cytotoxic activity, MTT reduction assay, 72 h; conditions: for Cytotoxicity level (grade): U937 cells, graded by LC50
Procedure: as §1, §2

[3] = Trypanosoma cruzi, TULAHUEN, U-937, 72 h, intracellular amastigotes of T. cruzi Tulahuen in U937 macrophages, 72 h, average ± SD (SEM), read-out: Trypanocidal Activity (EC50)
[4] = Trypanosoma cruzi, TULAHUEN, U-937, T. cruzi intracellular amastigotes, graded by EC50, read-out: Trypanocidal activity (grade)
[5] = Trypanosoma cruzi, TULAHUEN, U-937, 72 h, read-out: Trypanocidal Activity (EC50), intracellular amastigotes of T. cruzi Tulahuen in U937 macrophages, 72 h, average ± SD (SEM)
[6] = Trypanosoma cruzi, TULAHUEN, U-937, read-out: Trypanocidal activity (grade), T. cruzi intracellular amastigotes, graded by EC50
[7] = read-out: Trypanocidal Activity (EC50), intracellular amastigotes of T. cruzi Tulahuen in U937 macrophages, 72 h, average ± SD (SEM)

| Structure (SMILES) | CC50 at 72 h (in vitro) [µM] | SI (index of selectivity, IS = LC50/EC50) [1] | EC50 [1, 3] [µM] | Trypanocidal activity compared with the control drug BNZ [1] | EC50 [1, 5] [µM] | also measured |
| --- | --- | --- | --- | --- | --- | --- |
| CC(=O)c1ccc(O)cc1O [Compound 5, 1-(2,4-Dihydroxyphenyl)ethan-1-one] | 54 ± 0.5 | 3.0 | 17.8 ± 0.8 | – | – | – |
| CC(=O)c1ccc(O)c(O)c1O [Compound 8, 1-(2,3,4-Trihydroxyphenyl)ethan-1-one] | > 200 | >10.9 | 18.3 ± 1.1 | much better trypanocidal activity than the control drug BNZ | – | EC50 [1, 4]: 10 to 50 µM |
| CC(=O)c1c(O)cc(O)cc1O [Compound 9, 1-(2,4,6-Trihydroxyphenyl)ethan-1-one] | > 200 | >4.1 | 49.3 ± 9 | – | – | EC50 [1, 4]: 10 to 50 µM |
| O=c1ccoc2cc(O)ccc12 [Compound 10, 7-Hydroxy-4H-chromen-4-one] | 23.4 ± 6.4 | <2 | > 11.7 | – | – | – |
| O=c1ccoc2ccc(O)cc12 [Compound 11, 6-Hydroxy-4H-chromen-4-one] | 28 ± 1.9 | 2.4 | 11.8 ± 0.3 | much better trypanocidal activity than the control drug BNZ | – | EC50 [1, 4]: 10 to 50 µM |
| O=c1ccoc2cccc(O)c12 [Compound 12, 5-Hydroxy-4H-chromen-4-one] | > 100 | >5.0 | 19.9 ± 1.3 | much better trypanocidal activity than the control drug BNZ | – | EC50 [1, 4]: 10 to 50 µM |
| O=c1ccoc2c(O)c(O)ccc12 [Compound 13, 7,8-Dihydroxy-4H-chromen-4-one] | 43 ± 0.9 | 0.3 | 154 ± 26.8 | – | – | Trypanocidal activity (grade) ([1]; graded by EC50): very low |
| CC(=O)c1cc(CC=C(C)C)c(O)cc1O [Compound 14, 1-(2,4-Dihydroxy-5-(3-methylbut-2-en-1-yl)phenyl)ethan-1-one] | 34 ± 4.9 | <2 | – | – | > 17 | – |
| CC(=O)c1ccc(O)c(CC=C(C)C)c1O [Compound 15, 1-(2,4-Dihydroxy-3-(3-methylbut-2-en-1-yl)phenyl)ethan-1-one] | 25.2 ± 4.6 | 1.2 | – | – | 20.7 ± 1.1 | EC50 [1, 6]: 10 to 50 µM |
| CC(=O)c1c(O)cc(O)c(CC=C(C)C)c1O [Compound 17, 1-(2,4,6-Trihydroxy-3-(3-methylbut-2-en-1-yl)phenyl)ethan-1-one] | 21.2 ± 6.9 | 2.8 | – | – | < 10 | EC50 [1, 7]: 7.5 µM |
| CC(=O)c1cc(CC=C(C)C)c(O)c(O)c1O [Compound 18, 1-(2,3,4-Trihydroxy-5-(3-methylbut-2-en-1-yl)phenyl)ethan-1-one] | < 10 | – | – | – | – | Cytotoxicity level (grade) [2]: high (high when LC50 values were lower than 50 μM); CC50 ([2]; human, 72 h): 5 ± 1.7 µM |
| CC(C)=CCc1cc2c(=O)ccoc2cc1O [Compound 23, 7-Hydroxy-6-(3-methylbut-2-en-1-yl)-4H-chromen-4-one] | > 200 | >10 | – | – | > 20 | – |
| CC(C)=CCc1c(O)ccc2c(=O)ccoc12 [Compound 24, 7-Hydroxy-8-(3-methylbut-2-en-1-yl)-4H-chromen-4-one] | > 100 | >0.9 | – | – | 111 ± 18.5 | Trypanocidal activity (grade) ([1]; graded by EC50): very low |
| CC(C)=CCc1ccc2occc(=O)c2c1O [Compound 25, 5-Hydroxy-6-(3-methylbut-2-en-1-yl)-4H-chromen-4-one] | – | >5.8 | – | much better trypanocidal activity than the control drug BNZ | 17.3 ± 0.4 | Cytotoxicity (LC50) ([2]; human, 72 h): 47.1 ± 5.5 µM; EC50 [1, 6]: 10 to 50 µM |
| CC(C)=CCc1cc2c(=O)ccoc2c(O)c1O [Compound 26, 7,8-Dihydroxy-6-(3-methylbut-2-en-1-yl)-4H-chromen-4-one] | – | 4.59 | – | much better trypanocidal activity than the control drug BNZ | < 10 | Cytotoxicity (LC50) ([2]; human, 72 h): >200 µM; EC50 [1, 7]: 10.3 µM |
| COCOc1cc(O)c(C(=O)C=Cc2ccc(OC)cc2)cc1CC=C(C)C [Compound 27, 1-(2-Hydroxy-4-(methoxymethoxy)-5-(3-methylbut-2-en-1-yl)phenyl)-3-(4-methoxyphenyl)prop-2-en-1-one] | 43.4 ± 7.3 | 1.2 | – | – | 35.3 ± 1.1 | EC50 [1, 6]: 10 to 50 µM |
| COCOc1cc(O)c(C(=O)C=Cc2ccc(Cl)cc2)cc1CC=C(C)C [Compound 28, 3-(4-Chlorophenyl)-1-(2-hydroxy-4-(methoxymethoxy)-5-(3-methylbut-2-en-1-yl)phenyl)prop-2-en-1-one] | – | <2 | – | much better trypanocidal activity than the control drug BNZ | > 0.3 | Cytotoxicity level (grade) [2]: high (high when LC50 values were lower than 50 μM) |
| COCOc1cc2oc(-c3ccc(OC)cc3)cc(=O)c2cc1CC=C(C)C [Compound 29, 7-(Methoxymethoxy)-2-(4-methoxyphenyl)-6-(3-methylbut-2-en-1-yl)-4H-chromen-4-one] | 17 ± 0.2 | <2 | – | much better trypanocidal activity than the control drug BNZ | > 9.8 | – |
| COCOc1cc2oc(-c3ccc(Cl)cc3)cc(=O)c2cc1CC=C(C)C [Compound 30, 2-(4-Chlorophenyl)-7-(methoxymethoxy)-6-(3-methylbut-2-en-1-yl)-4H-chromen-4-one] | 27.2 ± 3.3 | <2 | – | much better trypanocidal activity than the control drug BNZ | > 13.6 | – |
| COc1cccc2c1C(=O)c1c(O)c3c(c(O)c1C2=O)C[C@@](O)(C(=O)CO)C[C@@H]3O[C@H]1C[C@H](N)[C@H](O)[C@H](C)O1 [DOX, doxorubicin, reference compound] | 0.5 | – | – | – | – | – |
